Measured values: patent US7998985B2, “1,5-diphenyl-3-pyridinylamino-1,5-dihydropyrrolidin-2-one as CB1 receptor modulator” (Eli Lilly and Company, priority 2006, dated 2011)

Legend:
[1] = tested on: alcohol-preferring (P) rats; test: 12-hour ethanol consumption in alcohol-preferring rats (P rats); assay type: in vivo, rat; conditions: female P rats, 15% (v/v) ethanol, continuous free access; Example 2 given p.o.
From the text: Evaluate Example 2 for its ability to reduce consumption of ethanol in rats selectively bred for high oral ethanol intake (P rats). In addition, study the effects of Example 2 under conditions in which effects of the compound on motivation or the control of behavior by ethanol could be assessed.
Methods: Study the effects of Example 2 on female, alcohol-preferring (P) rats on alcohol consumption under a continuous free access paradigm. For comparative purposes test the standard opioid antagonist naltrexone. Monitor voluntary consumption of 15% (v/v) ethanol. Suspend Example 2 in vehicle (1% CMC, 0.5% SLS, 0.08% povidone, 0.05% Dow Corning antifoam 1510 US) and give p.o. 3 hours prior to the onset of the dark cycle. In addition, measure locomotor activity via infrared sensor.

human CB2 receptor = target: T1, human CB2 receptor (Homo sapiens, UniProt P34972); test: GTP-γ-35S binding, agonist mode, human CB2 (Sf9 membranes); assay type: biochemical
T1 construct: purchased Applied Cell Sciences, Gaithersburg, Md; PerkinElmer Life Sciences, Boston, Mass; host or cells: Sf9 insect cells (recombinant expression), membranes

rat CB1 receptor = target: T2, rat CB1 receptor (Rattus norvegicus, UniProt P20272); test: Antibody-capture SPA GTP-γ-35S binding, antagonist/inverse agonist mode, rat CB1 (CHO membranes); assay type: biochemical; conditions: Rat CB1 (CHO cells) membranes; vs saturating methanandamide; mean ± SEM; read-out: Inverse Agonist Potency (Kb)
T2 construct: purchased Applied Cell Sciences, Gaithersburg, Md; PerkinElmer Life Sciences, Boston, Mass; host or cells: CHO cells (recombinant expression), membranes
Procedure: Antibody-Capture SPA GTP-γ-^35S Binding
In cell membranes expressing human or rat CB1 or CB2 receptor, test (3R,5R)-3-[1-methyl-1-(6-trifluoromethyl-pyridin-3-yl)-ethylamino]-1-(4-trifluoromethyl-phenyl)-5-(3-trifluoromethoxy-phenyl)-pyrrolidin-2-one 4-methylbenzenesulfonate (referred to as “Example 2”) for its antagonist/inverse agonist functional GTP-binding. In a 96 well format using a modified antibody capture technique (DeLapp et al., 1999), measure GTP-γ^35S binding. Briefly incubate for 30 minutes at room temperature the GTP-binding assay buffer (20 mM Hepes, 100 mM NaCl, 5 mM MgCl2, pH 7.4), the CHO or Sf9 cell membranes expressing CB1 or CB2, (Applied Cell Sciences, Gaithersburg, Md.; PerkinElmer Life Sciences, Boston, Mass.; prepare membranes as previously described (DeLapp et al., 1999)), Example 2 and the 500 pM GTP-γ-^35S (PerkinElmer Life Sciences, Boston, Mass.). Perform antagonist dose responses in the presence of a saturating dose of a full agonist (methanandamide). […]
To analyze data, subtract background from all wells. […] Determine Kb values using a modification of the Cheng-Prusoff relationship: Kb=IC50/(1+[agonist]/EC50) where IC50 is determined from a four parameter fit of displacement curves, [agonist]=EC50 of full agonist, and EC50 is determined from a four parameter fit of a full agonist concentration response curve (Cheng and Prusoff 1973). […]

[2] = tested on: female Sprague-Dawley rats; test: Atypical antipsychotic (olanzapine) weight gain model; assay type: in vivo, rat; conditions: 0.3 and 1 mg/kg Example 2 plus olanzapine, days 15-28
From the text: Methods: Maintain adult lean, female Sprague-Dawley rats ad libitum on normal rodent chow Purina LabDiet 5001 (12.3% fat) and water. […] Follow food intake, monitor body weight and change in fat mass over a two week treatment.

T1 sequence (P34972 whole entry): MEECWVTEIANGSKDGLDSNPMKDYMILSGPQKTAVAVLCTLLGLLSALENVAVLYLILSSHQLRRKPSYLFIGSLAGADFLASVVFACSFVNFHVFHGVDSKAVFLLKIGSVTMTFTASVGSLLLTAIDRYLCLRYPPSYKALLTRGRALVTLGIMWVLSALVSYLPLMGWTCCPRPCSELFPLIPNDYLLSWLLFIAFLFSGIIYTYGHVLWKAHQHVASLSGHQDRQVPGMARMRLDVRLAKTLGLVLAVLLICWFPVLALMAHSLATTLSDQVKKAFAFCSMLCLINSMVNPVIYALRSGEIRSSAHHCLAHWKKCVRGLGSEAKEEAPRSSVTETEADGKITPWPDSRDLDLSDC
T2 sequence (P20272 whole entry): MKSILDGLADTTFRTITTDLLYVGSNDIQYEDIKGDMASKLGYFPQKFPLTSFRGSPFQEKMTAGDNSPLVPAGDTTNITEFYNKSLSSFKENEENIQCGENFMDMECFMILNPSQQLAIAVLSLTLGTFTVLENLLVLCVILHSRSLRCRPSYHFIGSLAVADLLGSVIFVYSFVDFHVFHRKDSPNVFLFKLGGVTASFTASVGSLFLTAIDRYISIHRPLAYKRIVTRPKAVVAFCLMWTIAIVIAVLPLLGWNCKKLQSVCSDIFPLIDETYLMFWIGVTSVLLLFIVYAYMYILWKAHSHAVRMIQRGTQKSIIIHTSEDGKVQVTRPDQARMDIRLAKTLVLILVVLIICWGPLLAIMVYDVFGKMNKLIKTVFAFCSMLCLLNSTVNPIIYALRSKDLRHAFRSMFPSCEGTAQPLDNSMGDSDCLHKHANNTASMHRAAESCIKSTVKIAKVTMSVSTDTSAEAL

## CC(C)(N[C@@H]1C[C@H](c2cccc(OC(F)(F)F)c2)N(c2ccc(C(F)(F)F)cc2)C1=O)c1ccc(C(F)(F)F)nc1.Cc1ccc(S(=O)(=O)O)cc1 [Example 2, (3R,5R)-3-[1-methyl-1-(6-trifluoromethyl-pyridin-3-yl)-ethylamino]-1-(4-trifluoromethyl-phenyl)-5-(3-trifluoromethoxy-phenyl)-pyrrolidin-2-one, 4-methylbenzenesulfonate (1:1)]
[1]
  consumption of ethanol: decreased in a dose-dependent manner
Human CB2 receptor
  Agonist Potency EC50 (nM): No measurable activity
Human CB2 receptor; normalised to full agonist methanandamide
  Agonist Efficacy %: 0%
Rat CB1 receptor
  Kb: 1.27 ± 0.2 nM
[2]
  fat free mass under olanzapine: no changes in fat free mass
  fat mass gain under olanzapine: significant reduction in fat mass gain
